Consider 61 compounds from US20080090805A1, “CB-1 MODULATING COMPOUNDS AND THEIR USE” (ACADIA PHARMACEUTICALS INC., priority 2005, published 2008).

Like-named read-outs stand apart in the source and are kept apart here.

For the test, the target named is CB1 (mutant) (Homo sapiens, UniProt P21554). In words: R-SAT functional receptor assay, CB1 (mutant, truncated after amino acid 417). The note with it: R-SAT CB1; for IC50 / pIC50: receptor form (mutant or wild-type) not stated; for Emax / % Inhibition: receptor form not stated, relative to SR141716 (100%); for Emax: read-out: % Inhibition. In kind it is cell-based.
CB1 (mutant), sequence (P21554 1-417, change not shown): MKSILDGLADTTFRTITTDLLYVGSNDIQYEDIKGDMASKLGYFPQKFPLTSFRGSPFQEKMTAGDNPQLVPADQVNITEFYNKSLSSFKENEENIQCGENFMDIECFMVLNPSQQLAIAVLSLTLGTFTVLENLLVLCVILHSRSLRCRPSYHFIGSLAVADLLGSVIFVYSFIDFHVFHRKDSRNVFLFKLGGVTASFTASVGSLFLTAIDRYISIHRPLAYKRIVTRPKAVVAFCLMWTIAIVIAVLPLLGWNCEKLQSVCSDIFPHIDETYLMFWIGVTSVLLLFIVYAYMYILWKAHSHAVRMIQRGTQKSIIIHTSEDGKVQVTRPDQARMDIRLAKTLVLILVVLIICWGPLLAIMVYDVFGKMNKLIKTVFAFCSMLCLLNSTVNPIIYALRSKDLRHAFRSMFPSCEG

Setting [1] is: Appendix A, read-out: pIC50 (converted).

For `O=C(NC1CCCCC1)c1ccc2c(c1)N=C(c1ccc(Cl)cc1)c1ccccc1S2` [drawing 738], under setting [1], the IC50 was 79.4 nM. Also, the Emax (Appendix A) came to 96%.

As to `CCCSCCCNC(=O)c1ccc2c(c1)N=C(CCC)c1ccccc1S2`, under setting [1], the IC50 was 1580 nM. Moreover, for the setting “Appendix A”, the Emax came out at 87%.

In the case of `COCCNC(=O)c1ccc2c(c1)N=C(c1ccccc1F)c1ccccc1S2`, the IC50 under setting [1] was 100 nM. Also, where the note is “Appendix A”, the Emax came out at 99%.

As for `O=C(NCCc1ccccn1)c1ccc2c(c1)N=C(c1cccc(F)c1)c1ccccc1S2`, under setting [1], the IC50 was 50.1 nM. For the same compound, the Emax (Appendix A) turned out to be 91%.

Regarding `CCCCNC(=O)c1cc2c(cc1C)Sc1ccccc1C(c1ccc(Cl)cc1)=N2` [drawing 630], where the note is “Appendix A”, the Emax came to 94%. The IC50 (pIC50, Appendix A) is 63.1 nM.

As to `O=C(NCCc1cccc(Cl)c1)c1ccc2c(c1)N=C(N1CCCCC1)c1ccccc1S2` [drawing 973], the IC50 under setting [1] is 20 nM. In addition, the Emax (Appendix A) was 108%.

With `CON(C)C(=O)c1ccc2c(c1)N=C(c1sccc1C)c1ccccc1S2`, the IC50 under setting [1] was 794 nM. Besides, under “Appendix A”, the Emax stood at 42%.

For the compound `CCONC(=O)c1ccc2c(c1)N=C(c1ccccc1F)c1ccccc1S2`, the IC50 under setting [1] is 398 nM. In addition, the Emax (Appendix A) was determined as 73%.

Take `O=C(NCc1cccs1)c1ccc2c(c1)N=C(c1cccc(F)c1)c1ccccc1S2` [drawing 593]: for the setting “Appendix A”, the pIC50 was found to be 8.5 and the “% Inhibition” value is reported as 93%.

As to `O=C(NCc1ccccc1Br)c1ccc2c(c1)N=C(c1ccccc1F)c1ccccc1S2` [drawing 602], under setting [1], the IC50 is 50.1 nM. Further, for the setting “Appendix A”, the Emax is 65%.

As to `O=C(NCCCC(F)(F)F)c1ccc2c(c1)N=C(c1ccsc1)c1ccccc1S2` [drawing 555], under setting [1], the IC50 is 2 nM. Further, for the setting “Appendix A”, the Emax turned out to be 90%.

Consider `CCCC1=Nc2cc(C(=O)NCCCSC3CCCCC3)ccc2Sc2ccccc21`, for which the IC50 under setting [1] was 158 nM. Further, the Emax (Appendix A) was found to be 95%.

Take `O=C(NN1CCOCC1)c1ccc2c(c1)N=C(c1cccc(Cl)c1)c1ccccc1S2`: under setting [1], the IC50 was 79.4 nM. Moreover, the Emax (Appendix A) worked out at 80%.

On to `CC(C)CNC(=O)c1ccc2c(c1)N=C(c1ccc(Cl)cc1)c1ccc(Cl)cc1S2` [drawing 1113], for which the IC50 under setting [1] was 39.8 nM. The Emax (Appendix A) turned out to be 106%.

As for `NS(=O)(=O)c1ccc(CNC(=O)C2C=C3N=C(N4CCCCC4)c4ccccc4SC3=CC2)cc1` (stereo not shown), the IC50 under setting [1] is 398 nM. Moreover, the Emax (Appendix A) was determined as 78%.

With `O=C(NCCc1ccccn1)c1ccc2c(c1)N=C(c1cccc(Cl)c1)c1ccccc1S2` [drawing 905], the IC50 under setting [1] was 15.8 nM. In addition, the Emax (Appendix A) came to 103%.

Regarding `COc1ccc(C2=Nc3cc(C(=O)NNC(=O)Cc4ccccc4)ccc3Sc3ccccc32)cc1`, the IC50 under setting [1] was 50.1 nM. In addition, the Emax (Appendix A) was 77%.

On to `COCCNC(=O)c1ccc2c(c1)N=C(c1ccc(Br)cc1)c1ccccc1S2` [drawing 1081], for which the IC50 under setting [1] was 31.6 nM. Also, the Emax (Appendix A) came to 69%.

As to `O=C(NCCCC(F)(F)F)c1ccc2c(c1)N=C(c1ccc(Cl)s1)c1ccccc1S2` [drawing 559], the IC50 under setting [1] was 2.51 nM. Further, the Emax (Appendix A) is 103%.

`COc1cccc(C2=Nc3cc(C(=O)NCCC(F)(F)F)ccc3Sc3ccccc32)n1` [drawing 707]: the IC50 under setting [1] was 7.94 nM. Moreover, for the setting “Appendix A”, the Emax was 104%.

Regarding `O=C(NCCCc1ccccc1)c1ccc2c(c1)N=C(c1ccccc1)c1ccccc1S2` [drawing 617], the IC50 under setting [1] was 3.98 nM. For the same compound, the Emax (Appendix A) amounted to 111%.

`O=C(NCCc1cccnc1)c1ccc2c(c1)N=C(c1cccc(Cl)c1)c1ccccc1S2` [drawing 857]: under setting [1], the IC50 was 12.6 nM. For the setting “Appendix A”, the Emax was found to be 100%.

Take `CONC(=O)c1ccc2c(c1)N=C(c1cccc(Br)c1)c1ccccc1S2`: the IC50 under setting [1] is 501 nM. Also, the Emax (Appendix A) came to 73%.

For `Cc1ccc(CNC(=O)c2ccc3c(c2)N=C(c2ccc(Cl)cc2)c2ccccc2S3)o1` [drawing 1141], the Emax (Appendix A) came to 93%. Besides, the IC50 (pIC50, Appendix A) is 39.8 nM.

As for `CONC(=O)c1ccc2c(c1)N=C(c1ccc(Cl)s1)c1ccccc1S2`, the IC50 under setting [1] was 398 nM. Moreover, where the note is “Appendix A”, the Emax stood at 66%.

As to `O=C(NN1CCCCC1)c1ccc2c(c1)N=C(c1ccc(F)cc1)c1ccccc1S2` [drawing 845], where the note is “Appendix A”, the “% Inhibition” value is listed as 97%.

Consider `O=C(NCCc1ccncc1)c1ccc2c(c1)N=C(c1ccccn1)c1ccccc1S2`, for which the IC50 under setting [1] was 251 nM. The Emax (Appendix A) was determined as 51%.

In the case of `O=C(NNCC(F)(F)F)c1ccc2c(c1)N=C(c1ccc(Cl)cc1)c1ccccc1S2` [drawing 816], where the note is “Appendix A”, the Emax came to 81%.

As to `O=C(NN1CCOCC1)c1ccc2c(c1)N=C(N1CCCCC1)c1ccccc1S2`, the IC50 under setting [1] is 794 nM. Moreover, the Emax (Appendix A) was determined as 99%.

On to `O=C(NCc1ccccc1Cl)c1ccc2c(c1)N=C(c1ccccc1)c1ccccc1S2` [drawing 594], for which the IC50 under setting [1] was 50.1 nM. The Emax (Appendix A) was found to be 86%.

In the case of `CON(C)C(=O)c1ccc2c(c1)N=C(c1ccc(Cl)cc1Cl)c1ccccc1S2`, for the setting “Appendix A”, the pIC50 was 1.0 and the Emax is 18%.

Turning to `O=C(NN1CCCCC1)c1ccc2c(c1)N=C(N1CCCCC1)c1ccccc1S2` [drawing 610], the IC50 under setting [1] was 50.1 nM. Besides, the Emax (Appendix A) stood at 104%.

`CCCC1=NC2=C(CCC(C(=O)NCCc3ccc(OCC)cc3)=C2)Sc2ccccc21`: the IC50 under setting [1] is 158 nM. Besides, the Emax (Appendix A) worked out at 102%.

As for `COc1ccc(C2=Nc3cc(C(=O)NC4CCCCC4)ccc3Sc3ccccc32)cc1` [drawing 1153], the IC50 under setting [1] was 39.8 nM. Further, the Emax (Appendix A) worked out at 115%.

`O=C(NCCc1cccnc1)c1ccc2c(c1)N=C(c1ccccn1)c1ccccc1S2`: the IC50 under setting [1] was 316 nM. For the setting “Appendix A”, the Emax came out at 77%.

`O=C(NCc1ccc(Cl)cc1Cl)c1ccc2c(c1)N=C(c1ccccc1)c1ccccc1S2` [drawing 1167]: the IC50 under setting [1] was 39.8 nM. For the same compound, the Emax (Appendix A) was 91%.

On to `CCCC1=Nc2cc(C(=O)N3CCC(N4CCCCC4)CC3)ccc2Sc2ccccc21`, for which the IC50 under setting [1] was 2510 nM. The Emax (Appendix A) was 128%.

Regarding `O=C(NCc1ccncc1)c1ccc2c(c1)N=C(NCc1ccc(Cl)cc1)c1ccccc1S2`, the IC50 under setting [1] was 794 nM. Also, the Emax (Appendix A) came to 56%.

`CCCCN(C)C(=O)c1ccc2c(c1)N=C(c1ccccc1Cl)c1ccccc1S2`: the Emax (Appendix A) came to 40%.

As to `O=C(NCCc1cccnc1)c1ccc2c(c1)N=C(c1ccc(Cl)cc1Cl)c1ccccc1S2`, the IC50 under setting [1] is 200 nM. For the same compound, the Emax (Appendix A) was 74%.

With `O=C(NC1CCCCC1)c1ccc2c(c1)N=C(c1ccccn1)c1ccccc1S2` [drawing 598], the Emax (Appendix A) worked out at 112%. Also, the IC50 (pIC50, Appendix A) is 50.1 nM.

On to `CCCNC(=O)c1ccc2c(c1)N=C(c1ccccc1F)c1ccccc1S2`, for which, under setting [1], the IC50 is 39.8 nM. For the same compound, the Emax (Appendix A) worked out at 97%.

Consider `CCCC1=Nc2cc(C(=O)NCCCN3CCN(C4CCCCC4)CC3)ccc2Sc2ccccc21`, for which, under setting [1], the IC50 was 631 nM. In addition, for the setting “Appendix A”, the Emax is 118%.

Take `O=C(NCc1ccccc1)c1ccc2c(c1)N=C(C1CCCCC1)c1ccccc1S2` [drawing 877]: the IC50 under setting [1] was 15.8 nM. Where the note is “Appendix A”, the Emax was 97%.

On to `CC(C)CCNC(=O)c1ccc2c(c1)N=C(c1ccccc1Cl)c1ccccc1S2` [drawing 1053], for which, under setting [1], the IC50 was 31.6 nM. Further, the Emax (Appendix A) was determined as 105%.

`CCCCNC(=O)c1ccc2c(c1)N=C(CCC)c1ccccc1S2`: the IC50 under setting [1] is 25.1 nM. For the same compound, where the note is “Appendix A”, the Emax was found to be 111%.

Take `COc1ccc(C2=Nc3cc(C(=O)NNC(=O)c4ccccc4)ccc3Sc3ccccc32)cc1` [drawing 798]: for the setting “Appendix A”, the Emax came out at 83%.

`CCCC1=Nc2cc(C(=O)NCCc3ccc(Cl)cc3)ccc2Sc2ccccc21` [drawing 1003]: where the note is “Appendix A”, the Emax is 110%. Also, under “pIC50, Appendix A”, the IC50 was 25.1 nM.

Turning to `CCCNC(=O)c1ccc2c(c1)N=C(c1sccc1C)c1ccccc1S2` [drawing 927], under setting [1], the IC50 is 15.8 nM. The Emax (Appendix A) is 99%.

As to `O=C(NC1CCCCC1)c1ccc2c(c1)N=C(c1ccccc1F)c1ccccc1S2` [drawing 740], under setting [1], the IC50 is 79.4 nM. Also, the Emax (Appendix A) was 109%.

On to `CCCCN(C)C(=O)c1ccc2c(c1)N=C(c1cccc(F)c1)c1ccccc1S2`, for which, under setting [1], the IC50 is 63.1 nM. The Emax (Appendix A) was 90%.

For the compound `CCN(CCNC(=O)c1ccc2c(c1)N=C(c1ccc(Cl)cc1)c1ccccc1S2)c1ccccc1` [drawing 635], the IC50 under setting [1] was 5.01 nM. Where the note is “Appendix A”, the Emax was 102%.

`O=C(NCc1cccs1)c1ccc2c(c1)N=C(c1cccc(Cl)c1)c1ccccc1S2` [drawing 573]: the IC50 under setting [1] is 2.51 nM. Further, under “Appendix A”, the Emax came out at 108%.

For the compound `O=C(NCCc1cccc(Cl)c1)c1ccc2c(c1)N=C(c1ccccc1F)c1ccccc1S2` [drawing 736], under setting [1], the IC50 was 79.4 nM. The Emax (Appendix A) was determined as 91%.

As for `CCCC1=Nc2cc(C(=O)N3CCN(c4ccc(F)cc4)CC3)ccc2Sc2ccccc21`, the IC50 under setting [1] is 251 nM. The Emax (Appendix A) is 108%.

Turning to `N#Cc1ccc(C2=Nc3cc(C(=O)NCc4ccccn4)ccc3Sc3ccccc32)cc1`, the IC50 under setting [1] is 79.4 nM. For the same compound, the Emax (Appendix A) was found to be 99%.

`CCCC1=Nc2cc(C(=O)N3CCN(C(=O)OCC)CC3)ccc2Sc2ccccc21`: the IC50 under setting [1] was 1000 nM. Further, the Emax (Appendix A) amounted to 77%.

As for `O=C(NCc1cccc(Cl)c1)c1ccc2c(c1)N=C(c1ccc(F)cc1)c1ccccc1S2(=O)=O` [drawing 833], the IC50 under setting [1] is 12.6 nM. For the same compound, the Emax (Appendix A) worked out at 108%.

For `O=C(NCc1cccs1)c1ccc2c(c1)N=C(c1ccccn1)c1ccccc1S2` [drawing 1037], the IC50 under setting [1] was 25.1 nM. In addition, the Emax (Appendix A) was determined as 118%.

Take `CCCCNC(=O)c1ccc2c(c1)N=C(c1ccc(Cl)cc1)c1cc(Cl)ccc1S2` [drawing 556]: the IC50 under setting [1] was 50.1 nM. Besides, the Emax (Appendix A) came to 112%.

With `CCCC1=Nc2cc(C(=O)NCc3ccccc3Cl)ccc2Sc2ccccc21` [drawing 791], under setting [1], the IC50 is 10 nM. Further, the Emax (Appendix A) was found to be 105%.
